In ChEMBL document CHEMBL5380793, “Structure-Activity Relationship of Novel Pyrimidine Derivatives with Potent Inhibitory Activities against Mycobacterium tuberculosis” (J Med Chem, 2023):
≈ marks a conversion by molar mass, not a printed value.

Key:
Staphylococcus aureus = test: Antibacterial activity against methicillin-resistant Staphylococcus aureus assessed as inhibition of bacterial growth; format: functional
[1] = system: Mycobacterium tuberculosis; test: Antibacterial activity against Mycobacterium tuberculosis clinical isolate K12 assessed as inhibition of bacterial growth incubated for 6 days by microplate alamar blue assay; format: functional; details: K12, 144 h, time 6 day
[2] = system: Mycobacterium tuberculosis; test: Antibacterial activity against Mycobacterium tuberculosis clinical isolate K16 assessed as inhibition of bacterial growth incubated for 6 days by microplate alamar blue assay; format: functional; details: K16, 144 h, time 6 day
[3] = Toxicity in BALB/c mouse assessed as increase in AST level at 800 mg/kg, po measured at 14 days; format: organism-based; details: in vivo, 336 h, time 14 day
[4] = system: Mycobacterium tuberculosis; test: Antibacterial activity against Mycobacterium tuberculosis clinical isolate K4 assessed as inhibition of bacterial growth incubated for 6 days by microplate alamar blue assay; format: functional; details: K4, 144 h, time 6 day
[5] = Toxicity in BALB/c mouse assessed as body weight loss at 800 mg/kg, po measured for 2 weeks; format: organism-based; details: in vivo, 336 h
[6] = Tmax in Sprague-Dawley rat at 15 mg/kg, po measured for 24 hrs by LC-MS analysis; format: ADME, organism-based; details: in vivo
[7] = Toxicity in BALB/c mouse assessed as increase in uric acid level at 800 mg/kg, po measured at 14 days; format: organism-based; details: in vivo, 336 h, time 14 day
[8] = AUC(0 to t) in Sprague-Dawley rat at 15 mg/kg, po measured for 24 hrs by LC-MS analysis; format: ADME, organism-based; set-up: dose 15 mg/kg, time 24 hrs, route po; details: in vivo
[9] = Half life in Sprague-Dawley rat at 5 mg/kg, iv measured for 24 hrs by LC-MS analysis; format: ADME, organism-based; details: in vivo
[10] = Toxicity in BALB/c mouse assessed as mouse death at 800 mg/kg, po measured for 2 weeks; format: organism-based; details: in vivo, 336 h
[11] = Cmax in Sprague-Dawley rat at 5 mg/kg, iv measured for 24 hrs by LC-MS analysis; format: ADME, organism-based; set-up: time 24 hrs, dose 5 mg/kg, route iv; details: in vivo
[12] = Cmax in Sprague-Dawley rat at 15 mg/kg, po measured for 24 hrs by LC-MS analysis; format: ADME, organism-based; set-up: dose 15 mg/kg, time 24 hrs, route po; details: in vivo
[13] = Toxicity in BALB/c mouse assessed as reduction in ALP level at 800 mg/kg, po measured at 14 days; format: organism-based; details: in vivo, 336 h, time 14 day
[14] = biological target: T1, Dihydrofolate reductase (Mycobacterium tuberculosis) (UniProt P9WNX1); test: Inhibition of Mycobacterium tuberculosis DHFR at 10 uM relative to control
T1 sequence (whole entry): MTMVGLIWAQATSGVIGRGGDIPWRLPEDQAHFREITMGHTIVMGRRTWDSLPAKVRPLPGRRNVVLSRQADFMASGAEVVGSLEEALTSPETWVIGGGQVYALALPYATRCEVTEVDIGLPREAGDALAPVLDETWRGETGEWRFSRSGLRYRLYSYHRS

[15] = Oral bioavailability in Sprague-Dawley rat at 15 mg/kg measured for 24 hrs by LC-MS analysis; format: ADME, organism-based; details: in vivo
[16] = biological target: T2, Serine/threonine-protein kinase PknB (Mycobacterium tuberculosis) (UniProt P9WI81); test: Binding affinity to Mycobacterium tuberculosis PknB assessed as thermal stability by measuring change in melting temperature at 100 uM incubated for 0.5 hrs by SYPRO orange dye based differential scanning fluorimetry analysis
T2 sequence (whole entry): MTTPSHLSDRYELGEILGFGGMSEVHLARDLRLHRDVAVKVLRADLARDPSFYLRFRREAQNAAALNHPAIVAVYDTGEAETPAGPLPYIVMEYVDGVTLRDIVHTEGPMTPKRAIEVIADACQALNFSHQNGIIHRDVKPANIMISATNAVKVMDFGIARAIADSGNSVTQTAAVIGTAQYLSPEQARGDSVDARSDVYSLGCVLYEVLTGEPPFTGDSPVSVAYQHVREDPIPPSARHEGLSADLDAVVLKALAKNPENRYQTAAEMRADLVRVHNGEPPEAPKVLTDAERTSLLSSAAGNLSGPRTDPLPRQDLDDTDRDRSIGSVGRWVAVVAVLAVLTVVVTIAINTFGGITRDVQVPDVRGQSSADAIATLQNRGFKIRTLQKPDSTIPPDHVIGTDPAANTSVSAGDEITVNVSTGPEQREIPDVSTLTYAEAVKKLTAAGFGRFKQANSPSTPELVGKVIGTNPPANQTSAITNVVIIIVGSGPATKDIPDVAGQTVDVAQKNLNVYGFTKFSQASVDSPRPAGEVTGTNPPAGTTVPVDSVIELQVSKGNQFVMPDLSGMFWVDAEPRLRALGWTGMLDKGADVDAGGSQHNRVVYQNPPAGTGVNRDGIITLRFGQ

[17] = system: Mycobacterium tuberculosis; test: Antibacterial activity against Mycobacterium tuberculosis clinical isolate K5 assessed as inhibition of bacterial growth incubated for 6 days by microplate alamar blue assay; format: functional; details: K5, 144 h, time 6 day
Escherichia coli = test: Antibacterial activity against Escherichia coli assessed as inhibition of bacterial growth; format: functional
[18] = Toxicity in BALB/c mouse assessed as histopathological changes in kidney at 800 mg/kg, po measured at 14 days by H and E staining based analysis; format: organism-based; details: in vivo, 336 h, time 14 day
[19] = Toxicity in BALB/c mouse assessed as reduction in LDH level at 800 mg/kg, po measured at 14 days; format: organism-based; details: in vivo, 336 h, time 14 day
[20] = biological target: T3, Serine/threonine-protein kinase PknB (Mycobacterium tuberculosis, UniProt P9WI81); test: Binding affinity to Mycobacterium tuberculosis PknB assessed as dissociation constant at 600 uM by ITC analysis
T3 sequence (P9WI81 whole entry): T2 sequence (whole entry)

[21] = biological target: T2, Serine/threonine-protein kinase PknB (Mycobacterium tuberculosis); test: Binding affinity to Mycobacterium tuberculosis PknB assessed as thermal stability by measuring melting temperature at 100 uM incubated for 0.5 hrs by SYPRO orange dye based differential scanning fluorimetry analysis (reference value: 59 degreeC)
[22] = biological target: T2, Serine/threonine-protein kinase PknB (Mycobacterium tuberculosis); test: Binding affinity to Mycobacterium tuberculosis PknB assessed as gibbs free energy at 600 uM by ITC analysis
[23] = system: Mycobacteroides abscessus; test: Antibacterial activity against Mycobacterium abscessus assessed as inhibition of bacterial growth; format: functional
[24] = Apparent clearance during terminal phase in Sprague-Dawley rat at 5 mg/kg, iv measured for 24 hrs by LC-MS analysis; format: ADME, organism-based; details: in vivo
[25] = system: Mycobacterium tuberculosis; test: Antibacterial activity against Mycobacterium tuberculosis H37Rv assessed as inhibition of bacterial growth incubated for 6 days by microplate alamar blue assay; format: functional; details: 144 h, time 6 day
[26] = Cytotoxicity against human HepG2 cells assessed as inhibition of cell growth incubated for 48 hrs by MTT assay; format: toxicity, cell-based
[27] = system: Mycobacterium tuberculosis; test: Antitubercular activity against autoluminescent Mycobacterium tuberculosis H37Ra infected in BALB/c mouse assessed as reduction in relative light unit at 300 mg/kg, po administered once daily by oral gavage for 5 days and measured every 2 days by luminometer based analysis; format: functional; details: time 5 day
[28] = system: Mycolicibacterium smegmatis; test: Antibacterial activity against Mycobacterium smegmatis assessed as inhibition of bacterial growth; format: functional
[29] = AUC(0 to t) in Sprague-Dawley rat at 5 mg/kg, iv measured for 24 hrs by LC-MS analysis; format: ADME, organism-based; set-up: dose 5 mg/kg, time 24 hrs, route iv; details: in vivo
[30] = system: Mycobacterium tuberculosis; test: Antitubercular activity against marker free autoluminescent Mycobacterium tuberculosis H37Ra assessed as reduction in relative light unit measured once a day for 6 days; format: functional; details: 144 h, time 6 day
[31] = biological target: T1, Dihydrofolate reductase (Mycobacterium tuberculosis); test: Inhibition of Mycobacterium tuberculosis DHFR at 100 uM relative to control

## Cc1cc(Nc2nc(-c3ccccc3)ncc2Cl)c(OC(C)C)cc1C1CCNCC1
Staphylococcus aureus
  MIC: 4 µg/mL (≈ 9.15 µM)
[1]
  MIC: 0.5 µg/mL (≈ 1.14 µM)
[2]
  MIC: 1 µg/mL (≈ 2.29 µM)
[3]
  Activity: Toxic
[4]
  MIC: 0.5 µg/mL (≈ 1.14 µM)
[5]
  Activity: Non-Toxic
[6]
  Tmax: > 24 h
[7]
  Activity: Toxic
[8]
  AUC(0-t) at 24 h: 2080 ng·h/mL
[9]
  half-life: 26.2 h
[10]
  Activity: Non-Toxic
[11]
  Cmax: 595 ng/mL
[12]
  Cmax: 108 ng/mL
[13]
  Activity: Toxic
[14]
  inhibition: 4.5%
[15]
  bioavailability: 40.7%
[16]
  ΔTm: -5 °C
[17]
  MIC: 1 µg/mL (≈ 2.29 µM)
Escherichia coli
  MIC: > 16 µg/mL
[18]
  Activity: Toxic
[19]
  Activity: Toxic
[20]
  Kd: 9.4 µM
[21]
  Tm: 54 °C
[22]
  deltaG: -3.1 kcal/mol
[23]
  MIC: 4 µg/mL (≈ 9.15 µM)
[24]
  CLz/F: 25 mL/min/kg
[25]
  MIC: 0.5 µg/mL (≈ 1.14 µM)
[26]
  IC50 at 48 h: 3.1 µM
[27]
  Activity: 0.5 log10RLU
[28]
  MIC: 4 µg/mL (≈ 9.15 µM)
[29]
  AUC(0-t) at 24 h: 1690 ng·h/mL
[30]
  MIC: 0.5 µg/mL (≈ 1.14 µM)
[31]
  inhibition: 7.1%
